The results in this text go back to US12404241B2 (Celgene Corporation, priority 2018, dated 2025).

Usually DC50 stands for the concentration at which degradation of the target reaches its halfway point.

The target of this assay is T1, AR (Homo sapiens, UniProt P10275).
T1 construct: endogenous in cells; host or cells: VCaP cells
T1 sequence (P10275 1-920): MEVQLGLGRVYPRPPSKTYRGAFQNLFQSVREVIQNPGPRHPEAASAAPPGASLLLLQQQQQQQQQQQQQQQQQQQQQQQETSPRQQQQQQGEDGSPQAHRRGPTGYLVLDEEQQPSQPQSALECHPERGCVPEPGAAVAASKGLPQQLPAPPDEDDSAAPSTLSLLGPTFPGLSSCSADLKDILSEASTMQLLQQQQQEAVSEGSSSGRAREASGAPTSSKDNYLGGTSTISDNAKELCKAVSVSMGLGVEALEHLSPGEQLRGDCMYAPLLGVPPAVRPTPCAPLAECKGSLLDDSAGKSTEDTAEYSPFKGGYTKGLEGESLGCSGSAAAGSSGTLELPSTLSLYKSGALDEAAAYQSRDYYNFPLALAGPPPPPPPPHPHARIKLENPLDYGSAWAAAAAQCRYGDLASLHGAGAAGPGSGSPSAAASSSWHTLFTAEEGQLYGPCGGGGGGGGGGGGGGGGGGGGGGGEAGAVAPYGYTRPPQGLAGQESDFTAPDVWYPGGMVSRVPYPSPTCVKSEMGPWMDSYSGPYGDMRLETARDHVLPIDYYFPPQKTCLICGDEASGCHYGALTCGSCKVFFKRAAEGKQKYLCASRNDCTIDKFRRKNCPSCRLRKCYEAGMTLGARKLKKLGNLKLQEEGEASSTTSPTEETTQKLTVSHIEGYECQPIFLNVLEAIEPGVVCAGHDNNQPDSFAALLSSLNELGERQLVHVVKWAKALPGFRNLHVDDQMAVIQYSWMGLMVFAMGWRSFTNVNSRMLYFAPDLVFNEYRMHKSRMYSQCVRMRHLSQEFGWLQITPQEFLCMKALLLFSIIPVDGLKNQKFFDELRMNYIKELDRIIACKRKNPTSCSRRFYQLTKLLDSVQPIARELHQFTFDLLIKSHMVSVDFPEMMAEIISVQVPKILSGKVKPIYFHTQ
As to the kind of experiment: VCAP AR Degradation Assay. It is filed as cell-based. Conditions: for Y (AR degradation efficiency, % of DMSO control): class symbols *; for DC50: class symbols A-C, read-out: DC50. The method in brief:
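Compounds were plated as 10-point 1:3 series reaching 5 μM final, then VCaP cells were seeded onto them and incubated 24 h at 37 °C. Cells were lysed cold, and total AR was measured by sandwich ELISA relative to 0.1% DMSO wells.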

Where only a bound is given, the exact number is not on record here.

Turning to `CCc1cc(N2C(=S)N(c3ccc(C#N)c(C(F)(F)F)c3)C(=O)C2(C)C)ccc1OCCN1C[C@@H](C)N(CC(=O)Nc2cc(F)cc(NC3CCC(=O)NC3=O)c2)[C@@H](C)C1` (stereo partly drawn) [Example 283, 2-((2R,6S)-4-(2-(4-(3-(4-cyano-3-(trifluoromethyl)phenyl)-5,5-dimethyl-4-oxo-2-thioxoimidazolidin-1-yl)-2-ethylphenoxy)ethyl)-2,6-dimethylpiperazin-1-yl)-N-(3-(2,6-dioxopiperidin-3-ylamino)-5-fluorophenyl)acetamide], the “Y (AR degradation efficiency, % of DMSO control)” value is listed as “* (0<Y<=25%)” and the DC50 was below 100 nM.
Consider `CCc1cc(N2C(=S)N(c3ccc(C#N)c(C(F)(F)F)c3)C(=O)C2(C)C)ccc1CCCN1C[C@@H](C)N(CC(=O)Nc2cccc(NC3CCC(=O)NC3=O)c2)[C@@H](C)C1` (stereo partly drawn) [Example 284, 2-((2R,6S)-4-(3-(4-(3-(4-cyano-3-(trifluoromethyl)phenyl)-5,5-dimethyl-4-oxo-2-thioxoimidazolidin-1-yl)-2-ethylphenyl)propyl)-2,6-dimethylpiperazin-1-yl)-N-(3-(2,6-dioxopiperidin-3-ylamino)phenyl)acetamide], for which the “Y (AR degradation efficiency, % of DMSO control)” value is listed as “* (0<Y<=25%)” and the DC50 is below 100 nM.
On the same counts, the results for `CCc1cc(N2C(=S)N(c3ccc(C#N)c(C(F)(F)F)c3)C(=O)C2(C)C)ccc1OCCN1C[C@@H](C)N(CC(=O)Nc2cccc(N[C@H]3CCC(=O)NC3=O)c2)[C@@H](C)C1` [Example 285, 2-((2R,6S)-4-(2-(4-(3-(4-cyano-3-(trifluoromethyl)phenyl)-5,5-dimethyl-4-oxo-2-thioxoimidazolidin-1-yl)-2-ethylphenoxy)ethyl)-2,6-dimethylpiperazin-1-yl)-N-(3-((S)-2,6-dioxopiperidin-3-ylamino)phenyl)acetamide] are “* (0<Y<=25%)” and below 100 nM.
On the same counts, the results for `CCc1cc(N2C(=S)N(c3ccc(C#N)c(C(F)(F)F)c3)C(=O)C2(C)C)ccc1OCCN1C[C@@H](C)N(CC(=O)Nc2cccc(N[C@@H]3CCC(=O)NC3=O)c2)[C@@H](C)C1` [Example 286, 2-((2R,6S)-4-(2-(4-(3-(4-cyano-3-(trifluoromethyl)phenyl)-5,5-dimethyl-4-oxo-2-thioxoimidazolidin-1-yl)-2-ethylphenoxy)ethyl)-2,6-dimethylpiperazin-1-yl)-N-(3-((R)-2,6-dioxopiperidin-3-ylamino)phenyl)acetamide] are “* (0<Y<=25%)” and below 100 nM.
On the same counts, the results for `C[C@@H]1CN(CCCc2ccc(N3C(=S)N(c4ccc(C#N)c(C(F)(F)F)c4)C(=O)C3(C)C)cc2F)C[C@H](C)N1CC(=O)Nc1cccc(NC2CCC(=O)NC2=O)c1` (stereo partly drawn) [Example 287, 2-((2R,6S)-4-(3-(4-(3-(4-cyano-3-(trifluoromethyl)phenyl)-5,5-dimethyl-4-oxo-2-thioxoimidazolidin-1-yl)-2-fluorophenyl)propyl)-2,6-dimethylpiperazin-1-yl)-N-(3-(2,6-dioxopiperidin-3-ylamino)phenyl)acetamide] are “* (0<Y<=25%)” and below 100 nM.
Turning to `C[C@@H]1CN(CCOc2ccc(N3C(=S)N(c4ccc(C#N)c(C(F)(F)F)c4)C(=O)C3(C)C)cc2C2CC2)C[C@H](C)N1CC(=O)Nc1cccc(N[C@@H]2CCC(=O)NC2=O)c1` [Example 288, 2-((2R,6S)-4-(2-(4-(3-(4-cyano-3-(trifluoromethyl)phenyl)-5,5-dimethyl-4-oxo-2-thioxoimidazolidin-1-yl)-2-cyclopropylphenoxy)ethyl)-2,6-dimethylpiperazin-1-yl)-N-(3-((R)-2,6-dioxopiperidin-3-ylamino)phenyl)acetamide], the “Y (AR degradation efficiency, % of DMSO control)” value was “* (0<Y<=25%)” and the DC50 was below 100 nM.
On the same counts, the results for `C[C@@H]1CN(CCOc2ccc(N3C(=S)N(c4ccc(C#N)c(C(F)(F)F)c4)C(=O)C3(C)C)cc2C2CC2)C[C@H](C)N1CC(=O)Nc1cccc(N[C@H]2CCC(=O)NC2=O)c1` [Example 289, 2-((2R,6S)-4-(2-(4-(3-(4-cyano-3-(trifluoromethyl)phenyl)-5,5-dimethyl-4-oxo-2-thioxoimidazolidin-1-yl)-2-cyclopropylphenoxy)ethyl)-2,6-dimethylpiperazin-1-yl)-N-(3-((S)-2,6-dioxopiperidin-3-ylamino)phenyl)acetamide] are “* (0<Y<=25%)” and below 100 nM.
For the compound `CCc1cc(N2C(=S)N(c3ccc(C#N)c(Cl)c3)C(=O)C2(C)C)ccc1OCCN1C[C@@H](C)N(CC(=O)Nc2cccc(NC3CCC(=O)NC3=O)c2)[C@@H](C)C1` (stereo partly drawn) [Example 291, 2-((2S,6R)-4-(2-(4-(3-(3-chloro-4-cyanophenyl)-5,5-dimethyl-4-oxo-2-thioxoimidazolidin-1-yl)-2-ethylphenoxy)ethyl)-2,6-dimethylpiperazin-1-yl)-N-(3-((2,6-dioxopiperidin-3-yl)amino)phenyl)acetamide], the “Y (AR degradation efficiency, % of DMSO control)” value was “* (0<Y<=25%)” and the DC50 is below 100 nM.
